Patent publication US10351539B2, “Macrocyclic complexes, their process of preparation and use as PET imaging agents” (INSTITUT NATIONAL DE LA SANTE ET DE LA RECHERCHE MEDICALE …, priority 2014, dated 2019)
Where two headings read alike, the source gives them in different places.

Experiments:
[1] = Study 3: quantitative biodistribution of ^64Cu-5 in rats; assay type: in vivo
Procedure: (§1) Quantitative biodistribution of radiolabelled compounds was determined in rats: healthy animals as well as rats with primary grade II orthotopic chondrosarcoma at stage Day-30 after induction. The chondrosarcoma model was the Swarm Rat Chondrosarcoma model (SRC) implanted in paratibial location. Radiolabelled compounds (5-10 Mbq/animal) were i.v. administered in the caudal vein of animals being anesthetized of mixture of ketamine (58 mg/kg i.p.) (Imalgéne 500®) and xylazine (6 mg/kg i.p.) (Rompun® 2%, Bayer, France). One hour after injection, animals were then sacrificed by CO2 inhalation, dissected and organs of interest removed, weighed and their radioactivity counted using a gamma counter (Model 1480 Wizard, Perkin Elmer Life Sciences, Boston, USA). For SRC animals, tumor was also sampled. After radioactive decay correction, results were expressed for each organ as % injected dose per gram (% ID/g) and averaged per group.
The comparison was carried out between ^64Cu-5 and ^99mTc-NTPC, the NTPC ligand having the following structure: […]

[2] = Biodistribution in healthy and SRC bearing rats at 1 h after i.v. injection of radiolabelled compounds; assay type: in vivo; conditions: mean ± SD (n = 3)
Procedure: as §1, with “USA). Organs collected were blood, muscle, knee, kidneys, liver, thoracic ribs, bladder for both healthy and chondrosarcoma bearing rats.” for “USA).”, “tumour” for “tumor”

[3] = Study 2: biodistribution in healthy New Zealand rabbits (gamma counting of dissected organs); assay type: in vivo; conditions: i.v.
Procedure: Biodistribution were determined in 36 healthy New Zealand rabbits (18 males and 18 females, 14 weeks old, 3.5 kg weight, Charles River, France), being randomly divided into two groups: • One group receiving ^99mTc-NTP 15-5: 18±3 MBq/animal for biodistribution; • One group receiving ^64Cu-2: 17±4 MBq/animal for biodistribution.
The compounds were i.v. administered to anesthetized animals (ketamine/xylazine by intramuscular route) in the marginal ear vein.
At selected time points after injection (15 min, 1 h, 3 h, 6 h, 20 h after injection), animals (3 animals/time point/compound) were sacrificed by a lethal i.v. dose of pentobarbital. Organs of interest were dissected, weighed and their radioactivity measured using a gamma counter (Model 1480 Wizard, Perkin Elmer Life Sciences, Boston, USA). After radioactive decay correction, results were expressed for each organ as % injected dose per gram (% ID/g) and averaged per group and per time point.

[4] = Study 1: biodistribution of ^99mTc-NTP 15-5 in healthy rat; assay type: in vivo; conditions: 1 h p.i., 0.37 MBq, average from 3 animals ± SD
Procedure: as §1, with “Radiolabelled compounds (5-10 Mbq/animal) were i.v. administered in the caudal vein of animals being anesthetized of mixture of ketamine (58 mg/kg i.p.) (Imalgéne 500®) and xylazine (6 mg/kg i.p.) (Rompun® 2%, Bayer, France).” left out, “USA). Organs collected were blood, muscle, knee, kidneys, liver, thoracic ribs, bladder for both healthy and chondrosarcoma bearing rats.” for “USA).”, “tumour” for “tumor”
The following table discloses the biodistribution of ^99mTc-NTP 15-5 in healthy rat, carried out in similar conditions than those of the compounds of the invention (see section C above).

[5] = Maurizis et al. 2000, 7.4 MBq/Kg; cited from earlier work
[6] = i.v., 5-10 MBq/animal, one hour after injection

CC[N+](CC)(CC)CCCN1CCCNCCNCCCNCC1.[64Cu+2] [^64Cu-5, [^64Cu]—N,N,N-Triethyl-3-(1,4,8,11-tetraazacyclotetradecan-1-yl)propan-1-aminium copper(II)]
Uptake in kidneys compared to ^99mTc-NTPC [1]: higher uptake
Uptake in liver [1]: undetectable
Uptake in target organs (intervertebral disc and articular cartilage) compared to ^99mTc-NTPC [1]: higher uptake
Articular Cartilage [1, 6]: 5.9 ± 2.3 % ID/g
Blood [1, 6]: 0.8 ± 1.2 % ID/g
Intervertebral disc [1, 6]: 3.5 ± 0.6 % ID/g
Kidney [1, 6]: 27.5 ± 10.1 % ID/g
Elimination compared to ^99mTc-NTPC ([1]; indicated by accumulation in kidneys): good elimination
In vivo stability (Cu is not released) ([1]; inferred from liver uptake): stable
Tumor ([2]; SRC (Swarm Rat Chondrosarcoma) bearing rats): 5.2 ± 2.1 % ID/g
Articular Cartilage ([2]; healthy and SRC bearing rats): 5.9 ± 2.3 % ID/g
Bladder ([2]; healthy and SRC bearing rats): 66.5 ± 14.4 % ID/g
Blood ([2]; healthy and SRC bearing rats): 0.8 ± 1.2 % ID/g
Kidney ([2]; healthy and SRC bearing rats): 27.5 ± 10.1 % ID/g
Muscle ([2]; healthy and SRC bearing rats): 1.5 ± 1.2 % ID/g

CC[N+](CC)(CC)CCCN1CC[N]2CC[N]3CC[N]4CC[N](CC1)[Tc]234(=[O])=[O].[Br-] [^99mTc-NTP 15-5, reference compound]
Uptake ratio Cartilage/Bone ([3]; 15 min): 51.5
Uptake ratio Cartilage/Muscle ([3]; 15 min): 103
Articular Cartilage ([3]; 15 min after injection): 1.03 ± 0.4 % ID/g
Bile ([3]; 15 min after injection): 0.09 ± 0.08 % ID/g
Blood ([3]; 15 min after injection): 1.09 ± 0.81 % ID/g
Bone ([3]; 15 min after injection): 0.02 ± 0.01 % ID/g
Bone Marrow ([3]; 15 min after injection): 0.02 ± 0.02 % ID/g
Kidney ([3]; 15 min after injection): 0.19 ± 0.03 % ID/g
Liver ([3]; 15 min after injection): 0.05 ± 0.02 % ID/g
Lung ([3]; 15 min after injection): 0.04 ± 0.04 % ID/g
Muscle ([3]; 15 min after injection): 0.01 ± 0.00 % ID/g
Spleen ([3]; 15 min after injection): 0.03 ± 0.06 % ID/g
Thyroid ([3]; 15 min after injection): 0.05 ± 0.04 % ID/g
Urine ([3]; 15 min after injection): 1.40 ± 1.02 % ID/g
Uptake ratio Cartilage/Bone ([3]; 1 h): 46
Articular Cartilage ([3]; 1 h after injection): 0.92 ± 0.4 % ID/g
Bile ([3]; 1 h after injection): 0.09 ± 0.07 % ID/g
Blood ([3]; 1 h after injection): 0.75 ± 0.09 % ID/g
Bone ([3]; 1 h after injection): 0.02 ± 0.00 % ID/g
Bone Marrow ([3]; 1 h after injection): 0.01 ± 0.00 % ID/g
Kidney ([3]; 1 h after injection): 0.10 ± 0.06 % ID/g
Liver ([3]; 1 h after injection): 0.06 ± 0.03 % ID/g
Lung ([3]; 1 h after injection): 0.02 ± 0.00 % ID/g
Muscle ([3]; 1 h after injection): 0.00 ± 0.00 % ID/g
Spleen ([3]; 1 h after injection): 0.02 ± 0.01 % ID/g
Thyroid ([3]; 1 h after injection): 0.06 ± 0.03 % ID/g
Urine ([3]; 1 h after injection): 4.08 ± 5.75 % ID/g
Articular Cartilage ([3]; 3 h after injection): 0.35 ± 0.15 % ID/g
Bile ([3]; 3 h after injection): 0.18 ± 0.24 % ID/g
Blood ([3]; 3 h after injection): 0.17 ± 0.81 % ID/g
Bone ([3]; 3 h after injection): 0.00 ± 0.00 % ID/g
Bone Marrow ([3]; 3 h after injection): 0.00 ± 0.00 % ID/g
Kidney ([3]; 3 h after injection): 0.09 ± 0.03 % ID/g
Liver ([3]; 3 h after injection): 0.08 ± 0.02 % ID/g
Lung ([3]; 3 h after injection): 0.01 ± 0.00 % ID/g
Muscle ([3]; 3 h after injection): 0.00 ± 0.00 % ID/g
Spleen ([3]; 3 h after injection): 0.00 ± 0.00 % ID/g
Thyroid ([3]; 3 h after injection): 0.11 ± 0.01 % ID/g
Urine ([3]; 3 h after injection): 1.34 ± 0.52 % ID/g
Articular Cartilage ([3]; 6 h after injection): 0.09 ± 0.03 % ID/g
Bile ([3]; 6 h after injection): 0.08 ± 0.02 % ID/g
Blood ([3]; 6 h after injection): 0.03 ± 0.00 % ID/g
Bone ([3]; 6 h after injection): 0.00 ± 0.00 % ID/g
Bone Marrow ([3]; 6 h after injection): 0.00 ± 0.00 % ID/g
Kidney ([3]; 6 h after injection): 0.06 ± 0.01 % ID/g
Liver ([3]; 6 h after injection): 0.06 ± 0.01 % ID/g
Lung ([3]; 6 h after injection): 0.00 ± 0.00 % ID/g
Muscle ([3]; 6 h after injection): 0.00 ± 0.00 % ID/g
Spleen ([3]; 6 h after injection): 0.00 ± 0.00 % ID/g
Thyroid ([3]; 6 h after injection): 0.02 ± 0.03 % ID/g
Urine ([3]; 6 h after injection): 1.61 ± 0.6 % ID/g
Articular Cartilage ([3]; 20 h after injection): 0.04 ± 0.01 % ID/g
Bile ([3]; 20 h after injection): 0.03 ± 0.01 % ID/g
Blood ([3]; 20 h after injection): 0.00 ± 0.00 % ID/g
Bone ([3]; 20 h after injection): 0.00 ± 0.00 % ID/g
Bone Marrow ([3]; 20 h after injection): 0.00 ± 0.00 % ID/g
Kidney ([3]; 20 h after injection): 0.07 ± 0.00 % ID/g
Liver ([3]; 20 h after injection): 0.03 ± 0.02 % ID/g
Lung ([3]; 20 h after injection): 0.00 ± 0.00 % ID/g
Muscle ([3]; 20 h after injection): 0.00 ± 0.00 % ID/g
Spleen ([3]; 20 h after injection): 0.01 ± 0.00 % ID/g
Thyroid ([3]; 20 h after injection): 0.00 ± 0.00 % ID/g
Urine ([3]; 20 h after injection): 0.40 ± 0.01 % ID/g
Blood [4]: 0.90 ± 0.08 % ID/g
Bone (tibia) [4]: 0.51 ± 0.29 % ID/g
Brain [4]: 0.14 ± 0.02 % ID/g
Kidney [4]: 15.4 ± 12.5 % ID/g
Liver [4]: 2.02 ± 0.38 % ID/g
Lung [4]: 1.71 ± 0.97 % ID/g
Muscle [4]: 0.37 ± 0.24 % ID/g
Spleen [4]: 0.71 ± 0.25 % ID/g
Testis [4]: 1.11 ± 0.47 % ID/g
Tibial plateau [4]: 2.99 ± 1.60 % ID/g

CC[N+](CC)(CC)CCCN1CCCNCCNCCCNCC1 [^99mTc-NTPC, metal not drawn]
Articular Cartilage [5]: 0.52 ± 0.08 % ID/g
Blood [5]: 0.22 ± 0.05 % ID/g
Intervertebral disc [5]: 0.36 ± 0.09 % ID/g
Kidney [5]: 2.96 ± 0.36 % ID/g
Liver [5]: 4.34 ± 0.47 % ID/g
